Measurements as given in patent US11827628B2, “Compositions and methods for inhibition of the JAK pathway” (Rigel Pharmaceuticals, Inc., priority 2005, dated 2023).
Structures can show the parent of a compound that is named as a salt. Where two headings read alike, the source gives them in different places. Blank lines part the entries; values can stand above or below the compound they belong to.

System: IL-4 stimulated expression of CD23 in human Ramos B cells (JAK-1 and JAK-3)
Assay: Assay for Ramos B-Cell Line Stimulated with IL-4 (CD23 upregulation, FACS)
Assay type: cell-based
Conditions: read-out: IC50, Example 41
Description: One means of assaying for such inhibition is detection of the effect of the 2,4-substituted pyrimidinediamine compounds on the upregulation of downstream gene products. In the Ramos/IL4 assay, B-cells are stimulated with the cytokine Interleukin-4 (IL-4) leading to the activation of the JAK/Stat pathway through phosphorylation of the JAK family kinases, JAK1 and JAK3, which in turn phosphorylate and activate the transcription factor Stat-6. […] To study the effect of inhibitors (e.g., the 2,4-substituted pyrimindinediamine compounds described herein) on the JAK1 and JAK3 kinases, human Ramos B cells are stimulated with human IL-4. Twenty to 24 hours post stimulation, cells are stained for upregulation of CD23 and analyzed using flow cytometry (FACS). […] An exemplary assay of this type is described in greater detail in Example 41
B-cells stimulated with cytokine Interleukin-4 (IL-4) activate the JAK/Stat pathway through phosphorylation of the JAK family kinases, JAK-1 and JAK-3, which in turn phosphorylate and activate the transcription factor Stat-6. […] To study the effect of inhibitors on the JAK family kinases, human Ramos B cells are stimulated with human IL-4.
The Ramos B-cell line was acquired from ATCC (ATCC Catalog No. CRL-1596). The cells were cultured in RPMI 1640 (Cellgro, MediaTech, Inc., Herndon, VA, Cat No. 10-040-CM) with 10% fetal bovine serum (FBS), heat inactivated (JRH Biosciences, Inc, Lenexa, Kansas, Cat No. 12106-500M) according to ATCC propagation protocol. Cells were maintained at a density of 3.5×10^5. The day before the experiment, Ramos B-cells were diluted to 3.5×10^5 cells/mL to ensure that they were in a logarithmic growth phase.
Cells were spun down and suspended in RPMI with 5% serum. 5×10^4 cells were used per point in a 96-well tissue culture plate. Cells were pre-incubated with compound or DMSO (Sigma-Aldrich, St. Louis, MO, Cat No. D2650) vehicle control for 1 hour in a 37° C. incubator. Cells were then stimulated with IL-4 (Peprotech Inc., Rocky Hill, NJ, Cat No. 200-04) for a final concentration of 50 units/mL for 20-24 hours. Cells were then spun down and stained with anti-CD23-PE(BD Pharmingen, San Diego, CA, Cat No. 555711) and analyzed by FACS. Detection was performed using a BD LSR I System Flow Cytometer, purchased from Becton Dickinson Biosciences of San Jose, California The IC50 calculated based on the results of this assay are provided in TABLE XII.

[1] = Ramos B-cell line stimulated with IL-4, CD23 expression by FACS
[2] = Ramos B cells stimulated with IL-4, CD23 expression by FACS
[3] = Homo sapiens, Ramos, Ramos B-cell line stimulated with IL-4, CD23 expression by FACS
[4] = Homo sapiens, Ramos, Ramos B cells stimulated with IL-4, CD23 expression by FACS

Compound: NC(=O)COc1cccc(Nc2nc(Nc3cccc(S(N)(=O)=O)c3)ncc2F)c1 [Compound I-88, N4-(3-Aminocarbonylmethoxy)phenyl-N2-(3-aminosulfonyl)phenyl-5-fluoro-2,4-pyrimidinediamine]
IC50 [1]: 1080 nM

Compound: NC(=O)COc1ccc(Nc2nc(Nc3cccc(S(N)(=O)=O)c3)ncc2F)cc1 [Compound I-111, N4-(4-Aminocarbonylmethoxy)phenyl-N2-(3-aminosulfonyl)phenyl-5-fluoro-2,4-pyrimidinediamine]
IC50 [1]: 890 nM

Compound: CN(C)C(=O)COc1ccc(Nc2nc(Nc3ccc(Cl)c(S(N)(=O)=O)c3)ncc2F)cc1Cl [Compound I-140, N2-(3-Aminosulfonyl-4-chlorophenyl)-N4-(3-chloro-4-dimethylaminocarbonylmethoxyphenyl)-5-fluoro-2,4-pyrimidinediamine]
IC50 [3]: 388 nM

Compound: CC(=O)NS(=O)(=O)c1cc(Nc2ncc(F)c(Nc3ccc(OCC#N)cc3)n2)ccc1C [Compound I-38, N2-(3-Acetylaminosulfonyl-4-methyl)phenyl-N4-(4-cyanomethyleneoxy)phenyl-5-fluoro-2,4-pyrimidinediamine sodium salt]
IC50 (Ramos B-cell line stimulated with IL-4, CD23 expression by FACS, sodium salt): 6440 nM

Compound: Cc1ccc(Nc2ncc(F)c(Nc3ccc(N(C)C(=O)CC#N)cc3)n2)cc1S(N)(=O)=O [Compound I-87, N2-(3-Aminosulfonyl-4-methylphenyl)-N4-[4-(N-cyanoacetyl-N-methyl)aminophneyl]-5-fluoro-2,4-pyrimidinediamine]
IC50 [1]: 1040 nM

Compound: COc1cc(Nc2nc(Nc3ccc(C)c(S(N)(=O)=O)c3)ncc2F)ccc1OCC(N)=O [Compound I-105, N4-(4-Aminocarbonylmethoxy-3-methoxyphenyl)-N2-(3-aminosulfonyl-4-methylphenyl)-5-fluoro-2,4-pyrimidinediamine]
IC50 [3]: 1170 nM

Compound: Cc1ccc(Nc2ncc(F)c(Nc3ccc(OCC(=O)N4CCOCC4)cc3)n2)cc1S(N)(=O)=O [Compound I-212, N2-(3-Aminosulfonyl-4-methylphenyl)-5-fluoro-N4-[4-(2-morpholin-4-yl-2-oxo-ethoxy)phenyl]-2,4-pyrimidinediamine]
IC50 [3]: 758 nM

Compound: CCC(=O)NS(=O)(=O)c1cc(Nc2ncc(F)c(Nc3ccc(OCC#N)c(F)c3)n2)ccc1C [Compound I-48, N4-(4-Cyanomethoxy-3-fluorophenyl)-5-fluoro-N2-(4-methyl-3-propionylaminosulfonylphenyl)-2,4-pyrimidinediamine]
IC50 [3]: 1400 nM

Compound: Cc1cc(Nc2nc(Nc3ccc(C)c(S(N)(=O)=O)c3)ncc2F)ccc1OC1CCN(C)CC1 [II-5, N2-(3-Aminosulfonyl-4-methylphenyl)-5-fluoro-N4-{3-methyl-4-[(1-methylpiperidin-4-yl)oxy]phenyl}-2,4-pyrimidinediamine]
IC50 [3]: 2210 nM

Compound: Cc1ccc(Nc2ncc(F)c(Nc3ccc4c(c3)N(Cc3ccccn3)C(=O)CO4)n2)cc1S(N)(=O)=O [Compound V-2, N2-(3-Aminosulphonyl-4-methylphenyl)-5-fluoro-N4-[3-oxo-4-(2-pyridylmethy)-benz[1,4]oxazin-6-yl]-2,4-pyrimidinediamine]
IC50 [2]: 1180 nM

Compound: 5-Fluoro-N4-(4-[3-methyl-1,2,4-oxadiazol-5-yl]methyleneoxyphenyl)-N2-(5-piperidinesulfonylphenyl)-2,4-pyrimidinediamine [Compound I-272]
IC50 [1]: 788 nM

Next, values leading:

IC50 [2]: 961 nM
Compound: CN1C(=O)C(C)(C)S(=O)(=O)c2ccc(Nc3nc(Nc4ccc(S(N)(=O)=O)cc4)ncc3F)cc21 [VII-46, N2-(4-Aminosulphonylphenyl)-5-fluoro-N4-(2,2,4-trimethyl-1,1,3-trioxo-benzo[1,4]thiazin-6-yl)-2,4-pyrimidinediamine]

IC50 [2]: 295 nM
Compound: CCNC(=O)NCCc1ccc(Nc2nc(Nc3ccc(C)c(S(N)(=O)=O)c3)ncc2F)cc1 [III-124, N2-(3-aminosulfonyl-4-methyl)phenyl-N4-[4-(2-ethylaminocarbonylamino)ethyl]phenyl-5-fluoro-2,4-pyrimidinediamine]

IC50 [1]: 1950 nM
Compound: CCN(CC)CCNS(=O)(=O)c1ccc(Nc2ncc(F)c(Nc3ccc(Cc4ccncc4)cc3)n2)cc1 [III-72, N2-[4-(2-N,N-Diethylaminoethyl)aminosulfonylphenyl)-5-fluoro-N4-[4-(4-pyridinylmethyl)phenyl]-2,4-pyrimidinediamine]

IC50 [2]: 1280 nM
Compound: COc1ccc(Nc2ncc(F)c(Nc3ccc(CN4CCOCC4)cc3)n2)cc1S(N)(=O)=O [III-105, N2-(3-Aminosulfonyl-4-methyleneoxyphenyl)-5-fluoro-N4-(4-N-morpholinomethylenephenyl)-2,4-pyrimidinediamine]

IC50 [4]: 93.2 nM
Compound: NS(=O)(=O)c1ccc(Nc2ncc(F)c(Nc3cccc(-c4cnco4)c3)n2)cc1 [IV-3, N2-(4-Aminosulfonylphenyl)-5-fluoro-N4-[3-(1,3-oxazol-5-yl)phenyl]-2,4-pyrimidinediamine]

IC50 [4]: 548 nM
Compound: Cc1ccc(Nc2ncc(F)c(Nc3ccc4c(c3)CCC(=O)N4)n2)cc1S(N)(=O)=O [VII-21, N2-(3-Aminosulfonyl-4-methylphenyl)-N4-[3,4-dihydro-(1H)-quinolin-2-one-6-yl]-5-fluoro-2,4-pyrimidinediamine]

IC50 [4]: 2030 nM
Compound: Cc1ccc2cccc(Nc3nc(Nc4ccc(C)c(S(N)(=O)=O)c4)ncc3F)c2n1 [VII-80, N2-(3-Aminosulfonyl-4-methylphenyl)-5-fluoro-N4-(2-methylquinolin-8-yl)-2,4-pyrimidinediamine]

IC50 [4]: 10300 nM
Compound: CCN(CC)S(=O)(=O)c1cc(Nc2ncc(F)c(N(C)c3ccc(Cl)c(Cl)c3)n2)ccc1OC [VI-105, N4-(3,4-dichlorophenyl)-N4-methyl-5-fluoro-N2-[3-(N,N-diethyl)aminosulfonyl-4-methoxyphenyl]-2,4-pyrimidinediamine]

IC50 [2]: 539 nM
Compound: CCNC(=O)NCCc1ccc(Nc2nc(Nc3ccc(S(N)(=O)=O)cc3)ncc2F)cc1 [III-122, N2-(4-aminosulfonyl)phenyl-N4-[4-(2-ethylaminocarbonylamino)ethyl]phenyl-5-fluoro-2,4-pyrimidinediamine]

IC50 [4]: 115 nM
Compound: C#CCn1ccc2ccc(Nc3nc(Nc4ccc(C)c(S(N)(=O)=O)c4)ncc3F)cc21 [IX-3, N2-(3-Aminosulfonyl-4-methylphenyl)-5-fluoro-N4-[1-(propyn-3-yl)indol-6-yl]-2,4-pyrimidinediamine]

IC50 [2]: 1000 nM
Compound: N2-(3-aminosulfonyl-4-methyl)phenyl-5-fluoro-N4-(4-thiomethylcarbonyl)phenyl-2,4-pyrimidinediamine [VI-95]

IC50 [4]: 240 nM
Compound: CNS(=O)(=O)c1ccc(Nc2ncc(F)c(Nc3cc(OC)cc(OC)c3)n2)cc1OC [IX-51, N4-(3,5-Dimethoxyphenyl)-5-fluoro-N2-[4-(N-methyl)aminosulfonyl-3-methoxyphenyl]-2,4-pyrimidinediamine]

IC50 [1]: 323 nM
Compound: CNS(=O)(=O)c1cc(Nc2ncc(F)c(Nc3ccc(Oc4cccnc4)cc3)n2)ccc1C [II-13, 5-Fluoro-N2-[3-N-(methylaminosulfonyl)-4-methylphenyl]-N4-[4-(3-pyridyloxy)phenyl]-2,4-pyrimidinediamine]

IC50 [4]: 360 nM
Compound: C#CCNS(=O)(=O)c1cccc(Nc2nc(Nc3ccc(S(N)(=O)=O)cc3)ncc2F)c1 [VI-80, N2-(4-Aminosulfonylphenyl)-5-fluoro-N4-[3-(prop-2-ynylaminosulfonyl)phenyl]-2,4-pyrimidinediamine]

IC50 [4]: 11300 nM
Compound: COc1ccc(N(C)c2nc(Nc3cc(C)c(Cl)c(S(N)(=O)=O)c3)ncc2F)cc1Cl [VI-21, N2-(3-Aminosulfonyl-4-chloro-5-methylphenyl)-N4-(3-chloro-4-methoxyphenyl)-5-fluoro-N4-methyl-2,4-pyrimidinediamine]
